From ChEMBL document CHEMBL3727353, “Small-molecule choline kinase inhibitors as anti-cancer therapeutics” (2011)

Columns and labels:
[1] = Terminal half life in Balbc mouse at 5 mg/kg, iv by LC-MS/MS analysis; type: ADME, organism-based; details: BALB/c, in vivo, read-out: beta t1/2 (converted)
[2] = AUC (0 to infinity) in Balbc mouse at 5 mg/kg, iv by LC-MS/MS analysis; type: ADME, organism-based; parameters: dose 5 mg/kg, time infinity, route intravenous; details: BALB/c, in vivo
[3] = Clearance in Balbc mouse at 5 mg/kg, iv by LC-MS/MS analysis; type: ADME, organism-based; details: BALB/c, in vivo
K562 = assay: Antiproliferative activity against human K562 cells after 72 hrs by alamar blue assay; type: functional, cell-based; details: K562, 72 h
MDA-MB-231 = assay: Antiproliferative activity against human MDA-MB-231 cells after 72 hrs by alamar blue assay; type: functional, cell-based; details: MDA-MB-231, 72 h

half-life [1] [min]	AUC(0-inf) [2] [ng·h/mL]	clearance [3] [mL/min/kg]	IC50 (K562) [µM]	IC50 (MDA-MB-231) [µM]	Compound
9	1290	129	–	–	CCOc1ccc(-c2nnc(SCC(=O)Nc3cc(C)cc(C)c3)[nH]2)cc1F
–	–	–	37	78.7	COc1ccc(-c2nnc(SCC(=O)Nc3ccc(F)cc3F)[nH]2)cc1
